Measurements reported in article PMC11845477, “Exploring the principles behind antibiotics with limited resistance” (Nature Communications, 2025).

Experiments:
[1] = test system: A. baumannii ATCC 17978 (SEN) and A. baumannii ATCC BAA-1605 (MDR); experiment: Adaptive laboratory evolution (ALE), relative MIC of evolved lines; type: cell-based, Acinetobacter baumannii
In short: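 Ten parallel populations per antibiotic–ancestor pair were evolved in MHB at 37 °C, starting near 50% growth-inhibiting drug. Every 72 h they were passaged into 0.5–2.5× increasing concentrations, keeping the highest-drug well with OD600 > 0.2.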

[2] = test system: E. coli BW25113: pUCacrAB; experiment: AcrAB-TolC efflux overexpression screen, relative MIC; type: cell-based, Escherichia coli; details: pUCacrAB vs empty pUC118 control
In short: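 Broth microdilution in MHB (supplemented MS for SCH79797), ten-step antibiotic dilutions, 5 × 10^5 cells/mL, 18 h at 37 °C with shaking; MIC is lowest concentration giving background-corrected OD600 < 0.05. Relative MIC as log2 ratio: ΔacrB vs wild-type; pUCacrAB vs empty pUC118 (plasmid strains under 100 µg/mL ampicillin). Mean of 3 biological replicates.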

C[C@@H](O)[C@H]1C(=O)N2C(C(=O)O)=C(S[C@H]3CC[S@@+]([O-])C3)S[C@H]12 [Sulopenem]
MIC of evolved line ([1]; AB-SEN (A. baumannii ATCC 17978), evolved line 1 of the given antibiotic): 8 µg/mL | Relative MIC ([1]; AB-SEN (A. baumannii ATCC 17978), evolved line 1 vs ancestor): 8 | MIC of evolved line ([1]; AB-SEN (A. baumannii ATCC 17978), evolved line 2 of the given antibiotic): 1 µg/mL | Relative MIC ([1]; AB-SEN (A. baumannii ATCC 17978), evolved line 2 vs ancestor): 1 | MIC of evolved line ([1]; AB-SEN (A. baumannii ATCC 17978), evolved line 3 of the given antibiotic): 16 µg/mL | Relative MIC ([1]; AB-SEN (A. baumannii ATCC 17978), evolved line 3 vs ancestor): 16 | MIC of evolved line ([1]; AB-SEN (A. baumannii ATCC 17978), evolved line 4 of the given antibiotic): 16 µg/mL | Relative MIC ([1]; AB-SEN (A. baumannii ATCC 17978), evolved line 4 vs ancestor): 16 | MIC of evolved line ([1]; AB-SEN (A. baumannii ATCC 17978), evolved line 5 of the given antibiotic): 64 µg/mL | Relative MIC ([1]; AB-SEN (A. baumannii ATCC 17978), evolved line 5 vs ancestor): 64 | MIC of evolved line ([1]; AB-SEN (A. baumannii ATCC 17978), evolved line 6 of the given antibiotic): 16 µg/mL | Relative MIC ([1]; AB-SEN (A. baumannii ATCC 17978), evolved line 6 vs ancestor): 16 | MIC of evolved line ([1]; AB-SEN (A. baumannii ATCC 17978), evolved line 7 of the given antibiotic): 16 µg/mL | Relative MIC ([1]; AB-SEN (A. baumannii ATCC 17978), evolved line 7 vs ancestor): 16 | MIC of evolved line ([1]; AB-SEN (A. baumannii ATCC 17978), evolved line 8 of the given antibiotic): 8 µg/mL | Relative MIC ([1]; AB-SEN (A. baumannii ATCC 17978), evolved line 8 vs ancestor): 8 | MIC of evolved line ([1]; AB-SEN (A. baumannii ATCC 17978), evolved line 9 of the given antibiotic): 16 µg/mL | Relative MIC ([1]; AB-SEN (A. baumannii ATCC 17978), evolved line 9 vs ancestor): 16 | Relative MIC (log10) ([1]; AB-SEN (Acinetobacter baumannii ATCC 17978), evolved line 1): 0.9031 log10 | Relative MIC (log10) ([1]; AB-SEN (Acinetobacter baumannii ATCC 17978), evolved line 3): 1.204 log10 | Relative MIC (log10) ([1]; AB-SEN (Acinetobacter baumannii ATCC 17978), evolved line 5): 1.806 log10 | Relative MIC (log10) ([1]; AB-SEN (Acinetobacter baumannii ATCC 17978), evolved line 9): 1.204 log10 | Relative MIC (log10) ([1]; AB-SEN, Acinetobacter baumannii ATCC 17978, evolved line 7): 1.204 log10 | Relative MIC ([1]; Acinetobacter baumannii ATCC 17978 (AB-SEN), evolved line 1): 8 | Relative MIC ([1]; Acinetobacter baumannii ATCC 17978 (AB-SEN), evolved line 2): 1 | Relative MIC ([1]; Acinetobacter baumannii ATCC 17978 (AB-SEN), evolved line 3): 16 | Relative MIC ([1]; Acinetobacter baumannii ATCC 17978 (AB-SEN), evolved line 4): 16 | Relative MIC ([1]; Acinetobacter baumannii ATCC 17978 (AB-SEN), evolved line 5): 64 | Relative MIC ([1]; Acinetobacter baumannii ATCC 17978 (AB-SEN), evolved line 6): 16 | Relative MIC ([1]; Acinetobacter baumannii ATCC 17978 (AB-SEN), evolved line 7): 16 | Relative MIC ([1]; Acinetobacter baumannii ATCC 17978 (AB-SEN), evolved line 8): 8 | Relative MIC ([1]; Acinetobacter baumannii ATCC 17978 (AB-SEN), evolved line 9): 16 | Relative MIC (log2) ([2]; replicate 1): 0 | Relative MIC (log2) ([2]; replicate 2): 0 | Relative MIC (log2) ([2]; replicate 3): 0
